What was measured:
Assay type in all cases: cell-based
[1] = test system: Prostate Cancer panel; test: NCI60 five-dose screen, panel mean; details: Homo sapiens, read-out: Mean GI50
[2] = test system: PC-3; test: NCI60 five-dose screen; details: Homo sapiens, PC-3
[3] = test system: OVCAR-8; test: NCI60 five-dose screen; details: Homo sapiens, OVCAR-8
[4] = test system: SK-OV-3; test: NCI60 one-dose screen; details: Homo sapiens, SK-OV-3, read-out: Growth percent
[5] = test system: SNB-19; test: NCI60 one-dose screen; details: Homo sapiens, SNB-19, read-out: Growth percent
[6] = test system: K-562; test: NCI60 one-dose screen; details: Homo sapiens, K562, read-out: Growth percent
[7] = test system: SR; test: NCI60 five-dose screen; details: Homo sapiens
[8] = test system: OVCAR-4; test: NCI60 one-dose screen; details: Homo sapiens, OVCAR-4, read-out: Growth percent
[9] = test system: HL-60(TB); test: NCI60 one-dose screen; details: Homo sapiens, HL-60, read-out: Growth percent
[10] = test system: UO-31; test: NCI60 five-dose screen; details: Homo sapiens, UO-31
[11] = test system: RPMI-8226; test: NCI60 five-dose screen; details: Homo sapiens, RPMI-8226
[12] = test system: NCI-H522; test: NCI60 five-dose screen; details: Homo sapiens, NCI-H522
[13] = test system: HCC-2998; test: NCI60 one-dose screen; details: Homo sapiens, HCC 2998, read-out: Growth percent
[14] = test system: NCI-H23; test: NCI60 five-dose screen; details: Homo sapiens, NCI-H23
[15] = test system: HOP-92; test: NCI60 five-dose screen; details: Homo sapiens, HOP-92
[16] = test system: LOX IMVI; test: NCI60 one-dose screen; details: Homo sapiens, read-out: Growth percent
[17] = test system: CCRF-CEM; test: NCI60 one-dose screen; details: Homo sapiens, read-out: Growth percent
[18] = test system: MDA-MB-435; test: NCI60 one-dose screen; details: Homo sapiens, MDA-MB-435, read-out: Growth percent
[19] = test system: OVCAR-3; test: NCI60 one-dose screen; details: Homo sapiens, OVCAR-3, read-out: Growth percent
[20] = test system: MALME-3M; test: NCI60 five-dose screen; details: Homo sapiens, Malme-3M
[21] = test system: SF-295; test: NCI60 five-dose screen; details: Homo sapiens, SF-295
[22] = test system: HT29; test: NCI60 five-dose screen; details: Homo sapiens, HT-29
[23] = test system: SK-MEL-2; test: NCI60 five-dose screen; details: Homo sapiens, SK-MEL-2
[24] = test system: SF-539; test: NCI60 five-dose screen; details: Homo sapiens, SF-539
[25] = test system: PC-3; test: NCI60 one-dose screen; details: Homo sapiens, PC-3, read-out: Growth percent
[26] = test system: MDA-MB231ATCC; test: NCI60 five-dose screen; details: Homo sapiens, MDA-MB-231
[27] = test system: SK-MEL-2; test: NCI60 one-dose screen; details: Homo sapiens, SK-MEL-2, read-out: Growth percent
[28] = test system: MCF7; test: NCI60 one-dose screen; details: Homo sapiens, MCF7, read-out: Growth percent
[29] = test system: OVCAR-3; test: NCI60 five-dose screen; details: Homo sapiens, OVCAR-3
[30] = test system: EKVX; test: NCI60 one-dose screen; details: Homo sapiens, read-out: Growth percent
[31] = test system: A549/ATCC; test: NCI60 one-dose screen; details: Homo sapiens, A549, read-out: Growth percent
[32] = test system: HCC-2998; test: NCI60 five-dose screen; details: Homo sapiens, HCC 2998
[33] = test system: RXF 393; test: NCI60 one-dose screen; details: Homo sapiens, RXF 393, read-out: Growth percent
[34] = test system: SW-620; test: NCI60 one-dose screen; details: Homo sapiens, SW-620, read-out: Growth percent
[35] = test system: SK-OV-3; test: NCI60 five-dose screen; details: Homo sapiens, SK-OV-3
[36] = test system: Melanoma panel; test: NCI60 five-dose screen, panel mean; details: Homo sapiens, read-out: Mean GI50
[37] = test system: SNB-75; test: NCI60 five-dose screen; details: Homo sapiens, SNB-75

Structure (SMILES): CC[C@]12C=CCN3CC[C@@]4(c5ccc(OC)cc5N(C)[C@H]4[C@@](O)(C(=O)OC)[C@@H]1OC(=O)CCC[P+](c1ccccc1)(c1ccccc1)c1ccccc1OC)[C@@H]32 [9f]
- GI50 [1]: 0.34 µM
- GI50 [2]: 0.268 µM
- GI50 [3]: 0.79 µM
- activity at 10 µM [4]: -33.4%
- activity at 10 µM [5]: -95.2%
- activity at 10 µM [6]: -43.4%
- GI50 [7]: 0.221 µM
- activity at 10 µM [8]: -11.1%
- activity at 10 µM [9]: -5.95%
- GI50 [10]: 11 µM
- GI50 [11]: 0.106 µM
- GI50 [12]: 0.339 µM
- activity at 10 µM [13]: -93.1%
- GI50 [14]: 0.413 µM
- GI50 [15]: 0.172 µM
- activity at 10 µM [16]: -95.7%
- activity at 10 µM [17]: 0.92%
- activity at 10 µM [18]: -73.7%
- activity at 10 µM [19]: -75%
- GI50 [20]: 0.295 µM
- GI50 [21]: 1.83 µM
- GI50 [22]: 0.356 µM
- GI50 [23]: 0.322 µM
- GI50 [24]: 0.434 µM
- activity at 10 µM [25]: 4.74%
- GI50 [26]: 0.397 µM
- activity at 10 µM [27]: -98%
- activity at 10 µM [28]: -68.1%
- GI50 [29]: 0.297 µM
- activity at 10 µM [30]: -8.21%
- activity at 10 µM [31]: 20.1%
- GI50 [32]: 0.325 µM
- activity at 10 µM [33]: -83.6%
- activity at 10 µM [34]: -48.7%
- GI50 [35]: 0.411 µM
- GI50 [36]: 0.49 µM
- GI50 [37]: 0.197 µM

From publication PMC12028158, “Synthesis and In Vitro Evaluation of the Anticancer Effect of Novel Phosphonium Vindoline Derivatives” (International Journal of Molecular Sciences, 2025)
